{"source": "patent US20190374552A1", "about": "“MULTIFUNCTIONAL FORMULATIONS AND METHODS TO CONTROL DERMATITIS AND PRURITUS” (priority 2016, published 2019)", "origin": "cited, not measured here", "key": {"human TRPM8 (hTRPM8)": {"target": "human TRPM8 (hTRPM8) (Homo sapiens, UniProt Q7Z2W7)", "sequence (Q7Z2W7 whole entry)": "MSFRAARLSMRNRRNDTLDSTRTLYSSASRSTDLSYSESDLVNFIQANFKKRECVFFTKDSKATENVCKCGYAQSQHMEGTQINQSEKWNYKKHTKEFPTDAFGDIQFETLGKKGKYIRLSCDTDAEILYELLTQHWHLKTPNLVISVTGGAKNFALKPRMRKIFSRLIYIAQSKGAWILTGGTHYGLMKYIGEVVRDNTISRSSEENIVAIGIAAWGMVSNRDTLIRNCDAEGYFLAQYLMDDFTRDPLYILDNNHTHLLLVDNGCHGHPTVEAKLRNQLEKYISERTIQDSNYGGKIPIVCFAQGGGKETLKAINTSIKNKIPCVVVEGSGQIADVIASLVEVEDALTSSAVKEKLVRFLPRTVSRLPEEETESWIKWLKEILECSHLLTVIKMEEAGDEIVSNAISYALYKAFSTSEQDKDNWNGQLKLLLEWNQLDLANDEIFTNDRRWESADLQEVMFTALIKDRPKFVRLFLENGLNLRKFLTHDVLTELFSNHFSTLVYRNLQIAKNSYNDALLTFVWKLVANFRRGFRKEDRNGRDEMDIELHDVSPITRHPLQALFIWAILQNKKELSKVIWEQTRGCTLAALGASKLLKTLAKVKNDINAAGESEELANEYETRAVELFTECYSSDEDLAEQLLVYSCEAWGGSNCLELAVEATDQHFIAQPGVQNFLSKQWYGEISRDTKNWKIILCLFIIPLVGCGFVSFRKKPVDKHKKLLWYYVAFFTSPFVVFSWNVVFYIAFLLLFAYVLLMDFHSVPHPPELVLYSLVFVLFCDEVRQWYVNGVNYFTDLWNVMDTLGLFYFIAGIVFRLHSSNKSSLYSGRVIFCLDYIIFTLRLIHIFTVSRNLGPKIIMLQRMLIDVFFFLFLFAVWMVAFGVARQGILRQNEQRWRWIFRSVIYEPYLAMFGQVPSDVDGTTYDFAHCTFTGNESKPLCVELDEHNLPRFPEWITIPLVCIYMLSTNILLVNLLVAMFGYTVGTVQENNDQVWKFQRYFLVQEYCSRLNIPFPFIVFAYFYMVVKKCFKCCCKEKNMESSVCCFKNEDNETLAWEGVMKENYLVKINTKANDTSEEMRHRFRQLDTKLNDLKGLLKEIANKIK"}, "hTRPV2": {"target": "T1, hTRPV2 (Homo sapiens, UniProt Q9Y5S1)", "T1 sequence (Q9Y5S1 1-764)": "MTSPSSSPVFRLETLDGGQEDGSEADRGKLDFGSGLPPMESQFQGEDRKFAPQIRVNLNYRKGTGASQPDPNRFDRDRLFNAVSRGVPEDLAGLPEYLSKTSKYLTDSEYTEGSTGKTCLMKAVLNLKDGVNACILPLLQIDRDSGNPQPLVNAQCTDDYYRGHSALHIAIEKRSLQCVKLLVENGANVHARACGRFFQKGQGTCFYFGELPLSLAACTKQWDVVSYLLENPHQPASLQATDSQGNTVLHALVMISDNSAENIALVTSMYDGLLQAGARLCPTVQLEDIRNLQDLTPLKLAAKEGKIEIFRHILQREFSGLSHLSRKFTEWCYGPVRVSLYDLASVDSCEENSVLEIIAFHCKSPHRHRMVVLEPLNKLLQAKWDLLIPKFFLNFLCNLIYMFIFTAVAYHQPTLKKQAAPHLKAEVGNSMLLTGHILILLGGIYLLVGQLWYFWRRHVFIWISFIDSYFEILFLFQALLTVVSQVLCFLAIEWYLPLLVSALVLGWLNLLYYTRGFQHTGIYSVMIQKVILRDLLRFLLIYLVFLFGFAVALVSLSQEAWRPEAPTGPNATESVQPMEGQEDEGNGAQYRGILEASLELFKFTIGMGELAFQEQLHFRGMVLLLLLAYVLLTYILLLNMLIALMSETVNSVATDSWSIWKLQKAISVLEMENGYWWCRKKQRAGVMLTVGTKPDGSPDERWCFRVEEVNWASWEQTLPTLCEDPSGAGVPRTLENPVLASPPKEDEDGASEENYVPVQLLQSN"}, "TRPV1 [1]": {"target": "T2, TRPV1 (Homo sapiens, UniProt Q8NER1)"}, "TRPA1 [2]": {"target": "T3, TRPA1 (Homo sapiens, UniProt O75762)"}, "TRPA1 [3]": {"target": "T3, TRPA1", "details": "for inhibition of hTRPA1 activation by menthol and allyl isothiocyanate: compound at 1 mM, menthol 1 mM, allyl isothiocyanate 10 uM"}, "TRPV1 [4]": {"target": "T2, TRPV1", "remark": "listed apart in the source"}, "TRPA1 [5]": {"target": "T3, TRPA1", "remark": "listed apart in the source"}, "histaminergic itch": {"tested_on": "histaminergic itch", "details": "topical application, human trials"}, "scratching behavior ACD": {"tested_on": "scratching behavior ACD", "details": "mice exposed to haptens oxazolone and urushiol"}, "TRPV1 [6]": {"target": "TRPV1 (Rattus norvegicus, UniProt O35433)", "sequence (O35433 whole entry)": "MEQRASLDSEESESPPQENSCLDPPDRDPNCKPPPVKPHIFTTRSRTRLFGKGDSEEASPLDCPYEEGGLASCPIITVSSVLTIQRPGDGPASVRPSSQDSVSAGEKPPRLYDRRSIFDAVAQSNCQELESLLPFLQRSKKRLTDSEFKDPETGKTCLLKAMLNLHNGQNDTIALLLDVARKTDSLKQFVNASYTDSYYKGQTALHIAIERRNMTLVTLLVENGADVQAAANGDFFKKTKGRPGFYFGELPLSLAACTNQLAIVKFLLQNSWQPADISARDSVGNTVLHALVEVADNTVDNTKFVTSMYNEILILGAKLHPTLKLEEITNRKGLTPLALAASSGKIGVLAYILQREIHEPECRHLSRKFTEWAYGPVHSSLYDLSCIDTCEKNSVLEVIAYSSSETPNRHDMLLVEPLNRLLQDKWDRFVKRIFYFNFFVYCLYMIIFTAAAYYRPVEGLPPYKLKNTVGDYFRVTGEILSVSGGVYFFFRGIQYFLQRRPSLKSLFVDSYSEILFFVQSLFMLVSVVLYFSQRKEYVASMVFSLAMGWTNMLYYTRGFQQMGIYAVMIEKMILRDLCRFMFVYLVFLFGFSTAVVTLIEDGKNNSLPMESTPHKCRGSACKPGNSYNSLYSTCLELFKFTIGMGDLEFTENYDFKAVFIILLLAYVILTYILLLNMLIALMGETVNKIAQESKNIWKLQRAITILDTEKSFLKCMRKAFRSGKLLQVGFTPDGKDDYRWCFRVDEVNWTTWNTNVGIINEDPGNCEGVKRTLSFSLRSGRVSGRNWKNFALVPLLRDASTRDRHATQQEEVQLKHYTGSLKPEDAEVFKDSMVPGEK", "details": "compared with docosahexaenoic acid"}, "leukocyte migration": {"tested_on": "leukocyte migration", "details": "induced by injection of carrageenan"}, "TRPV1 [7]": {"tested_on": "TRPV1"}, "pain and itch responses": {"tested_on": "pain and itch responses", "details": "mice"}, "TRPM8": {"target": "TRPM8 (Homo sapiens, UniProt Q7Z2W7)", "sequence (Q7Z2W7 whole entry, species assumed)": "as the sequence (Q7Z2W7 whole entry) above"}, "TRPA1 [8]": {"target": "T3, TRPA1", "remark": "listed apart in the source"}, "TRPV1 [9]": {"target": "T2, TRPV1", "remark": "listed apart in the source"}}, "note": "Entries after “also recorded” stand apart in the source; their conditions may differ.", "data": [{"compound": "CC12CCC(CC1)C(C)(C)O2", "note": "[1,8-cineole]", "values": [{"measurement": "release of IL-I β, IL-4, IL-5 and TNF-a", "setting": "stimulated lymphocytes", "value": "decreased"}, {"measurement": "activation of hTRPM8", "setting": "human TRPM8 (hTRPM8)", "value": "activates"}, {"measurement": "activation of hTRPV2", "setting": "hTRPV2", "value": "did not activate"}, {"measurement": "activation of hTRPV1", "setting": "TRPV1 [1]", "value": "did not activate"}, {"measurement": "activation of hTRPA1", "setting": "TRPA1 [2]", "value": "did not activate"}]}, {"compound": "CC1(C)[C@@H]2CC[C@@]1(C)[C@](C)(O)C2", "note": "[2-methylosoborneol]", "values": [{"measurement": "IC50", "setting": "TRPA1 [3]; TRPA1 activation by 20 uM AITC, read-out: IC-50 concentration, inactivation of TRPA1 activation", "value": 120, "unit": "µM"}, {"measurement": "inhibition of hTRPA1 activation by menthol and allyl isothiocyanate", "setting": "TRPA1 [3]", "value": "completely inhibited"}, {"measurement": "activation of hTRPA1", "setting": "TRPA1 [2]", "value": "did not activate"}]}, {"compound": "O=C(CCCCC1CCSS1)NCCC(=O)NC(Cc1cnc[nH]1)C(=O)O", "note": "(stereo not shown) [ADM 09]", "values": [{"measurement": "block of TRPV1 agonist capsaicin", "setting": "TRPV1 [4]", "value": "blocked"}, {"measurement": "block of TRPA1 agonist AITC", "setting": "TRPA1 [5]", "value": "blocked"}]}, {"compound": "CC1CCC(C(C)C)C(O)C1", "note": "(stereo not shown) [Example 1-menthol, 1-menthol]", "values": [{"measurement": "activation of hTRPM8", "setting": "human TRPM8 (hTRPM8)", "value": "activation"}, {"measurement": "effect on histaminergic / experimentally induced itch", "setting": "histaminergic itch", "value": "significant inhibitory effects; also recorded: significant and pronounced anti-pruritic effect; also recorded: relieved"}, {"measurement": "activation of hTRPA1", "setting": "TRPA1 [2]", "value": "activated"}]}, {"compound": "CC(C)c1ccc(NC(=O)Cn2cnc3c2c(=O)n(C)c(=O)n3C)cc1", "note": "[HC-030031]", "values": [{"measurement": "scratching behavior", "setting": "scratching behavior ACD", "value": "inhibition of scratching"}]}, {"compound": "CC/C=C\\C/C=C\\C/C=C\\CCCCCCCC(=O)O", "note": "[a-linolenic acid]", "values": [{"measurement": "TRPV1 inhibition", "setting": "TRPV1 [6]", "value": "markedly more effective inhibitors"}]}, {"compound": "CC1(C)C2CCC1(C)C(O)C2", "note": "(stereo not shown) [borneol]", "values": [{"measurement": "inhibition of TNF-a and IL-6", "setting": "TNF-a and IL-6", "value": "inhibits"}, {"measurement": "leukocyte migration", "setting": "leukocyte migration", "value": "reduce"}, {"measurement": "inhibition of hTRPA1 activation by menthol and allyl isothiocyanate", "setting": "TRPA1 [3]", "value": "completely inhibited"}, {"measurement": "activation of hTRPA1", "setting": "TRPA1 [2]", "value": "did not activate"}]}, {"compound": "CC12CCC(CC1=O)C2(C)C", "note": "(stereo not shown) [camphor]", "values": [{"measurement": "activation of hTRPA1", "setting": "TRPA1 [2]", "value": "did not activate"}]}, {"compound": "CC12CCC(C1)C(C)(C)C2O", "note": "(stereo not shown) [fenchyl alcohol]", "values": [{"measurement": "inhibition of hTRPA1 activation by menthol and allyl isothiocyanate", "setting": "TRPA1 [3]", "value": "completely inhibited"}, {"measurement": "activation of hTRPA1", "setting": "TRPA1 [2]", "value": "did not activate"}]}, {"compound": "O=C1CC2CC[C@H]1C2", "note": "[norcamphor]", "values": [{"measurement": "activation of hTRPA1", "setting": "TRPA1 [2]", "value": "did not activate"}]}, {"compound": "CCCCCCCC/C=C\\CCCCCCCC(=O)O", "note": "[oleic acid]", "values": [{"measurement": "TRPV1 activity", "setting": "TRPV1 [7]", "value": "inhibited"}, {"measurement": "pain and itch responses", "setting": "pain and itch responses", "value": "inhibited"}]}, {"compound": "Hyaluronan [HA]", "values": [{"measurement": "TRPM8 channel function", "setting": "TRPM8", "value": "not affected"}, {"measurement": "TRPA1 channel function", "setting": "TRPA1 [8]", "value": "not affected"}, {"measurement": "TRPV1 channel activity", "setting": "TRPV1 [9]", "value": "inhibits"}]}]}
